Reference: patent US7060698B2, “Benzoxazepinone derivatives” (Hoffmann-La Roche Inc., priority 2003, dated 2006)

Molecular target: γ-secretase (Homo sapiens, UniProt P49768)
Experiment: in vitro assay of γ-secretase activity (HEK293 membrane fraction, recombinant APP substrate, Abeta ELISA)
Type: biochemical
Conditions: statement in the synthesis example on the separated diastereomers; assay not named
Description: The activity of test compounds can be evaluated in assays which measure the proteolytic cleavage of suitable substrates by γ-secretase activity. These can be cellular assays where e.g., a substrate of the γ-secretase is fused in its cytoplasmic domain to a transcription factor. Cells are transfected with this fusion gene and a reporter gene, e.g., firefly luciferase, which expression is enhanced by the transcription factor. Cleavage of the fused substrate by γ-secretase will lead to expression of the reporter gene which can be monitored in appropriate assays. The γ-secretase activity can also be determined in cell-free in vitro assays where e.g., a cell lysate containing the γ-secretase complex is incubated with a suitable APP-derived substrate which is cleaved to the Abeta peptides. The amount of produced peptides can be determined with specific ELISA assays. Cell lines of neuronal origin secrete Abeta peptides which can be measured with the specific ELISA assay. Treatment with compounds which inhibit γ-secretase leads to a reduction of secreted Abeta thus providing a measure of inhibition. The in vitro assay of γ-secretase activity uses a HEK293 membrane fraction as a source of γ-secretase and a recombinant APP substrate. Latter consist of the C-terminal 100 amino acids of human APP fused to a 6× Histidin tail for purification which is expressed in E. coli in a regulatable expression vector, e.g. pEt15. This recombinant protein corresponds to the truncated APP fragment which results after […] of the extracellular domain and which constitutes the γ-secretase substrate. The assay principle is described in Li Y M et al, PNAS 97(11), 6138–6143 (2000). Hek293 cells are mechanically disrupted and the microsomal fraction is isolated by differential centrifugation. The membranes are solubilized in detergent (0.25% CHAPSO) and incubated with the APP substrate.

Compound	inhibitory activity of the separated diastereomers
CCC1Oc2ccc(Cl)cc2C(C(=O)NC2CCCCC2)N(C2CCCC2)C1=O (stereo not drawn) [Example 9, 7-Chloro-4-cyclopentyl-2-ethyl-3-oxo-2,3,4,5-tetrahydro-benzo[f][1,4]oxazepine-5-carboxylic acid cyclohexylamide]	both inhibitorily active
CCC1Oc2ccc(Cl)cc2C(C(=O)NC(C)(C)C)N(C2CCCC2)C1=O (stereo not drawn) [Example 16, 7-Chloro-4-cyclopentyl-2-ethyl-3-oxo-2,3,4,5-tetrahydro-benzo[f][1,4]oxazepine-5-carboxylic acid tert-butylamide]	both inhibitorily active
CCC1Oc2ccc(Cl)cc2C(C(=O)NC(C)(C)C)N(C2CCCCC2)C1=O (stereo not drawn) [Example 13, 7-Chloro-4-cyclohexyl-2-ethyl-3-oxo-2,3,4,5-tetrahydro-benzo[f][1,4]oxazepine-5-carboxylic acid tert-butylamide]	both inhibitorily active
CCC1Oc2ccc(Cl)cc2C(C(=O)NC(C)(C)C)N(Cc2c(F)cccc2F)C1=O (stereo not drawn) [Example 12, 7-Chloro-4-(2,6-difluoro-benzyl)-2-ethyl-3-oxo-2,3,4,5-tetrahydro-benzo[f][1,4]oxazepine-5-carboxylic acid tert-butylamide]	both inhibitorially active
CCC1Oc2ccc(Cl)cc2C(C(=O)NC(C)(C)C)N(Cc2ccccc2Cl)C1=O (stereo not drawn) [Example 14, 7-Chloro-4-(2-chloro-benzyl)-2-ethyl-3-oxo-2,3,4,5-tetrahydro-benzo[f][1,4]oxazepine-5-carboxylic acid tert-butylamide]	both inhibitorily active
CCC1Oc2ccc(Cl)cc2C(C(=O)NC2CCCCC2)N(C2CCOCC2)C1=O (stereo not drawn) [Example 10, 7-Chloro-2-ethyl-3-oxo-4-(tetrahydro-pyran-4-yl)-2,3,4,5-tetrahydro-benzo[f][1,4]oxazepine-5-carboxylic acid cyclohexylamide]	both inhibitorily active
CCC1Oc2ccc(Cl)cc2C(C(=O)NC2CCCCC2)N(C2CCCCC2)C1=O (stereo not drawn) [Example 6, 7-Chloro-4-cyclohexyl-2-ethyl-3-oxo-2,3,4,5-tetrahydro-benzo[f][1,4]oxazepine-5-carboxylic acid cyclohexylamide]	both inhibitorily active
CCC1Oc2ccc(Cl)cc2C(C(=O)NC2CCCCC2)N(Cc2cccc(C(F)(F)F)c2)C1=O (stereo not drawn) [Example 11, 7-Chloro-2-ethyl-3-oxo-4-(3-trifluoromethyl-benzyl)-2,3,4,5-tetrahydro-benzo[f][1,4]oxazepine-5-carboxylic acid cyclohexylamide]	both inhibitorially active
CCC1Oc2ccc(Cl)cc2C(C(=O)NC2CCCCC2)N(Cc2ccccc2Cl)C1=O (stereo not drawn) [Example 7, 7-Chloro-4-(2-chloro-benzyl)-2-ethyl-3-oxo-2,3,4,5-tetrahydro-benzo[f][1,4]oxazepine-5-carboxylic acid cyclohexylamide]	both inhibitorily active
